Experimental data: US20230364049A1, “COMBINATION OF P2Y6 INHIBITORS AND IMMUNE CHECKPOINT INHIBITORS” (VIB VZW, priority 2020, published 2023)

Experiments:
[1] = Tolerability / body weight of treated Panc02 tumor-bearing mice; format: in vivo; conditions: MRS2578 3 mg/kg/day i.p.; FIG. 7
Procedure: (§1) Mice were randomized and treated, at indicated time points, intraperitoneally (i.p.) with 10 mg/kg of α-PD-1 (BioXcell) or control IgG from rat serum (Sigma-Aldrich), 3 mg/kg/day MRS2578 (Selleck Chemicals) or control vehicle. At the end stage, tumor weight was measured.
(§2) Mice were monitored and weighed continuously during the experiments. Mice showing symptoms of illness, that lost 20% of initial body weight, peritoneal leakage or with ulcerated tumors were sacrificed and excluded from the experiments. At the end stage, tumor weight was registered and samples were collected for histological examination, metabolomics and/or FACS/sorter analysis.

[2] = system: Panc02 tumors; assay: Subcutaneously implanted Panc02 tumor model, with FACS analysis of tumors; format: in vivo, mice
Procedure: 4×10^6 Panc02 cells were injected subcutaneously (s.c.) in the right flank of the mouse in a final suspension of 200 μI PBS. Tumor volumes were measured at least three times per week with a calliper and calculated using the formula: Volume (mm^3): ((Width(mm))^2×Length(mm))/2. 0.1×10^6 KPC1245 cells were injected orthotopically into the head of the pancreas in 20 μl of PBS.
as §1, §2
Tumor-bearing mice were sacrificed by cervical dislocation and perfused with saline to remove circulating immune cells. Tumors were harvested and minced in αMEM medium (Lonza) supplemented with 5% FBS, 1% Pen/Strep, 50 μM β-mercaptoethanol (Gibco), 5U/mL DNase I (Qiagen), 0.85 mg/mL Collagenase V (Collagenase from Clostridium histolyticum, Sigma-Aldrich), 1.25 mg/mL Collagenase D (Collagenase from Clostridium histolyticum, Roche) and 1 mg/mL Dispase II (Gibco) and incubated for 30 minutes at 37° C. The digested tissue was filtered using a 70 μm pore sized mesh strainer and cells were centrifuged 5 minutes at 300 xg. The samples were resuspended in Red Blood Cell Lysing Buffer Hybri-Max™ (Sigma-Aldrich) for 30 seconds, inactivated with FACS buffer (PBS containing 2% FBS and 2 mM EDTA) and centrifuged. The cell pellets were resuspended in FACS buffer and filtered with a 40 μm pore sized mesh strainer. Cells were resuspended in FACS buffer and for the intracellular measurement of interferon γ (IFN-γ) and granzyme B (GZMB), single-cell suspensions were culture in RPMI medium supplemented with 10% FBS, 1% glutamine, 1% Pen/Strep and stimulated with phorbol 12-myristate 13-acetate (PMA)/ionomycin Cell Stimulation Cocktail (eBioscience™, 1:500) in the presence of Brefeldin A (BioLegend®, 1:1000) or Monensin (eBioscience™, 1:1000) for 4 h at 37° C. Cells were then incubated for 15 minutes at 4° C. with Mouse BD Fc Block purified Rat Anti-Mouse CD16/CD32 mAb (BD Pharmingen™) and stained with the following antibodies for 30 minutes at 4° C.: Fixable viability dye (eFluor™ 506, eBioscience™), anti-CD45 (30-F11, APC-Cy7 or FITC, BioLegend®), anti-CD11b (M1/70, PerCP-Cy5.5, BioLegend®; eFluor™ 450, eBioscience™; or PE, BD Biosciences), anti-TCR-13 chain (H57-597, BV421, BD Biosciences), anti-CD4 (RM4-5, PE, BioLegend®), anti-CD8 (53-6.7, PE-Cy7, eBioscience™ or 53-6.7, APC-Cy7, BioLegend®), anti-CD69 (H1.2F3, APC, eBioscience™), anti-F4/80 (BM8, Alexa Fluor 488, eBioscience™; PerCP-Cy5.5, BioLegend®; or BV421, BioLegend®), anti-IFN-γ (XMG1.2, PE-Cy7, eBioscience™), anti-GZMB (GB11, Alexa Fluor 647, BioLegend®), anti-MHC-II (M5/114.15.2, APC, eBioscience™; or PerCP-eFluor 710, eBioscience™), anti-CD11c (N418, PE-Cy7, eBioscience™), anti-CD206 (MR5D3, Alexa Fluor 647, Bio-Rad), anti-Ly-6G (1A8, PE, BD Pharmingen™) anti-CD335 (NKp46) (29A1.4, APC, BioLegend®), anti-Foxp3 (FJK-16s, APC, eBioscience™) and anti-CD25 (PC61.5, PE-Cy7, eBioscience™). Cells were subsequently washed and resuspended in cold FACS buffer before FACS analysis or flow sorting by a FACS Verse or FACS Aria (BD Biosciences), respectively.

[3] = system: murine bone marrow derived macrophages (BMDMs); assay: BMDM migration assay (Transwell, UDP as chemoattractant); format: cell-based; conditions: 10 μM MRS2578, 100 μM UDP in bottom chamber, 6 h, FIG. 4
Procedure: In the macrophage migration assays, 1×10^5 murine BMDMs were seeded on […] polycarbonate membranes (Transwell; Costar) with or without 10 μM MRS2578. The bottom chambers contained DMEM with or without 100 μM UDP, 100 μM Uridine (Sigma-Aldrich) or 100 μM Cytidine (Sigma-Aldrich), or alternatively, conditioned media from NT or CDA KD cells.
After 6 h incubation, the cells were removed from the top of each membrane with a cotton stick and migrated cells were fixed in 4% PFA, washed in PBS, stained with crystal violet (2.5 g/L) and Hoechst, and mounted on glass slides with ProLong Gold mounting medium without DAPI. Images were acquired with Olympus BX41 microscope and CellSense imaging software.

[4] = Panc02 tumors, MRS2578 vs vehicle, FIG. 6

**Q.** Which “Harmful effect on mice (evolution of body weight)” value [1] does the source give for `S=C=Nc1cccc(NC(=S)NCCCCNC(=S)Nc2cccc(N=C=S)c2)c1` [MRS2578, N,N-1,4-butanediylbis-N-(3-isothiocyanatophenyl) thiourea] here?
**A.** Its value is “no harmful effect”.

**Q.** What about the Tumor volume ([2]; MRS2578 3 mg/kg/day i.p. combined to α-PD-1 therapy (10 mg/kg i.p.), sc Panc02, FIG. 5) of the same molecule?
**A.** The Tumor volume was “decrease”.

**Q.** And the Tumor weight ([2]; MRS2578 3 mg/kg/day i.p. combined to α-PD-1 therapy (10 mg/kg i.p.), sc Panc02, end stage, FIG. 5)?
**A.** The Tumor weight was “decrease”.

**Q.** And the “Infiltration of M2 polarized TAMs into Panc02 tumors” value ([2]; Panc02 tumors, MRS2578)?
**A.** Its value is “reduced infiltration”.

**Q.** And the “Infiltration of tumor-associated macrophages (TAMs) into Panc02 tumors” value ([2]; Panc02 tumors, MRS2578)?
**A.** Its value is “Reduced infiltration”.

**Q.** What about the “Activation of CD8+ T cells in the tumors (GZMB, FACS)” value [2, 4] of the same molecule?
**A.** The value was “more activated”.

**Q.** What about the “M2 polarization of macrophages (CD206 expression by FACS)” value [2, 4] of the same molecule?
**A.** Its value is “reduction of M2 polarization”.

**Q.** What about the “Migration of BMDMs towards UDP” value [3] of the same molecule?
**A.** Its value is “abrogated”.

**Q.** What about the “Migration of BMDMs towards UDP” value ([3]; listed as MRS 2578) of the same molecule?
**A.** Its value is “specifically inhibited”.
